Measurements taken from the CheMixHub viscosity set.
± gives the uncertainty stated by the source.

Settings: 101 kPa

Compound | viscosity (298.15 K) | viscosity (313.15 K) | viscosity (298.16 K)
C1COCOC1 | 1.057 ± 0.028 mPa·s | 0.8452 ± 0.022 mPa·s | –
CCCN(CCC)C(C)=O | – | – | 2.204 ± 0.02 mPa·s
